Measurements reported in patent US7943795B2, “Vitamin D receptor modulators” (Eli Lilly and Company, priority 2004, dated 2011).

Tested on: IL-10 production in PBMCs
Assay: IL-10 induction assay
Assay type: cell-based
Conditions: PBMC; TPA/PHA stimulated human PBMCs, IL-10 in supernatant by immunoassay
Source text: 7. The IL-10 induction assay is described in the “Assay” section of the Description, infra.
The IL-10 Induction Assay
This is an in vitro efficacy assay for psoriasis, abscess and adhesion. Psoriasis involves both keratinocytes and immune cells. IL-10 is a unique cytokine because it is anti-inflammatory and immunosuppressive. This assay tells us whether a VDRM is able to function as an agonist in PBMCs (primary blood mononuclear cells) or not. A lower EC50 value is desirable in this assay since a compound with a lower EC50 value will be a better agonist in PBMCs. An acceptable test result is an EC50 value of less than 200 nM. Preferred assay results are EC50 values of less than 100 nM.
Isolation of Peripheral Blood Mononuclear Cells (PBMCs):
Collect 50 ml of human blood and dilute with media, RPMI-1640. Add diluted blood to sterile tubes with ficol. Centrifuge the tubes. Discard the top layer and collect the cells from middle layer. Divide all cells into four tubes and add media. Centrifuge. Aspirate off media and resuspend the cells. Collect all cells. Centrifuge at 1200 rpm for 10 m. Resuspend the cells in RPMI-1640 with 2% FBS and then count cells.
Stimulation of PBMC: Prepare TPA in DMSO. Dissolve PHA in water. Plate TPA/PHA treated PBMCs in well plates. Incubate the cells.
Treatment: Prepare all compound dilutions in plain RPMI-1640 media. Add diluted compound and incubate. Sample Collection and assay: Remove all the cells by centrifugation and assay the supernatant for IL-10 by immunoassay using anti-human IL-10 antibody coated beads, as described by the manufacturer (Linco Research Inc., St. Charles, Mo.).

Row | Structure (SMILES) | IC50 [nM]
1 | CCC(CC)(c1ccc(OCC(=O)C(C)(C)C)c(C)c1)c1ccc2cc(C(=O)N(C)CC(=O)O)ccc2c1 [Ex. 5, [(6-{1-[4-(3,3-Dimethyl-2-oxobutoxy)-3-methylphenyl]-1-ethylpropyl}naphthalene-2-carbonyl)methylamino]acetic acid] | 5
2 | CCC(CC)(c1ccc(OCC(=O)C(C)(C)C)c(C)c1)c1ccc2cc(C(=O)O)ccc2c1 [Ex. 1, 6-{1-[4-(3,3-dimethyl-2-oxobutoxy)-3-methylphenyl]-1-ethylpropyl}naphthalene-2-carboxylic acid] | 76
